Laboratory results reported in US20240092784A1, “CONDENSED HETEROCYCLIC COMPOUND” (NISSAN CHEMICAL CORPORATION, priority 2020, published 2024).

The compounds below were run against human SPR (Homo sapiens (Human), UniProt P35270) (assay: Evaluation Example 2: Measurement of human SPR inhibitory activity (seven concentrations, sepiapterin absorbance at 420 nm)). Settings: Evaluation Example 2, seven concentrations 0.14 nM to 100 nM, 240 minutes at room temperature, read-out: IC50.
Format: biochemical
Procedure, shortened: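 His-tagged full-length human SPR (1-261) was expressed in E. coli and the tag removed. Enzyme at 150 ng/mL in 100 mM Tris-HCl pH 7.5/0.01% BSA was mixed with compound (0.14–100 nM, seven points), 120 μM sepiapterin and 160 μM NADPH, both as added-solution concentrations. After 240 min at room temperature, remaining sepiapterin was read at 420 nm to give percent inhibition.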

Chain of human SPR (P35270 whole entry): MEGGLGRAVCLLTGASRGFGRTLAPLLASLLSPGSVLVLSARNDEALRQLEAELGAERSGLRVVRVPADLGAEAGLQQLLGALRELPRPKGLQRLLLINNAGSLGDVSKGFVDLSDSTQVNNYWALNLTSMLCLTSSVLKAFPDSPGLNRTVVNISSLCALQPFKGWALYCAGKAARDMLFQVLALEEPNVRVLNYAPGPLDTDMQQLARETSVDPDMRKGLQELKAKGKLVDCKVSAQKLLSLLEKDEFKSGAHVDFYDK

`NC(=O)c1cc2n(CC3CCC(F)(F)CC3)c(=O)c(C(=O)NC3CC3)c(O)n2n1` [Synthesis Example 276, N6-Cyclopropyl-4-((4,4-difluorocyclohexyl)methyl)-7-hydroxy-5-oxo-4,5-dihydropyrazolo[1,5-a]pyrimidine-2,6-dicarboxamide] and `CC(C)(Cn1c(=O)c(C(=O)NC2CC2)c(O)n2nc(C(N)=O)cc12)C(F)(F)F` [Synthesis Example 277, N6-Cyclopropyl-7-hydroxy-5-oxo-4-(3,3,3-trifluoro-2,2-dimethylpropyl)-4,5-dihydropyrazolo[1,5-a]pyrimidine-2,6-dicarboxamide] are within 1.5-fold of each other in IC50: 0.68 nM for the first, 0.82 nM for the second.

`CC(C)(C)Cn1c(=O)c(C(=O)NC2CC2)c(O)n2nc(C(C)(C)O)cc12` [Synthesis Example 278, N-Cyclopropyl-7-hydroxy-2-(2-hydroxypropan-2-yl)-4-neopentyl-5-oxo-4,5-dihydropyrazolo[1,5-a]pyrimidine-6-carboxamide] and `CC(C)(C)Cn1c(=O)c(C(=O)NC2CC2)c(O)n2nc(C#N)cc12` [Synthesis Example 279, 2-Cyano-N-cyclopropyl-7-hydroxy-4-neopentyl-5-oxo-4,5-dihydropyrazolo[1,5-a]pyrimidine-6-carboxamide] are within 1.5-fold of each other in IC50: 1.87 nM for the first, 1.76 nM for the second.

`COc1ncccc1-c1cc2n(CC(C)(C)C)c(=O)c(C(=O)NC3CC3)c(O)n2n1` [Synthesis Example 281, N-Cyclopropyl-7-hydroxy-2-(2-methoxypyridine-3-yl)-4-neopentyl-5-oxo-4,5-dihydropyrazolo[1,5-a]pyrimidine-6-carboxamide] and `CC(C)(C)Cn1c(=O)c(C(=O)NC2CC2)c(O)n2nc(-c3cccnc3F)cc12` [Synthesis Example 283, N-Cyclopropyl-2-(2-fluoropyridine-3-yl)-7-hydroxy-4-neopentyl-5-oxo-4,5-dihydropyrazolo[1,5-a]pyrimidine-6-carboxamide] are within 1.5-fold of each other in IC50: 3.08 nM for the first, 2.35 nM for the second.

Compared with `COc1ccncc1-c1cc2n(CC(C)(C)C)c(=O)c(C(=O)NC3CC3)c(O)n2n1` [Synthesis Example 282, N-Cyclopropyl-7-hydroxy-2-(4-methoxypyridine-3-yl)-4-neopentyl-5-oxo-4,5-dihydropyrazolo[1,5-a]pyrimidine-6-carboxamide], `CC(C)(C)Cn1c(=O)c(C(=O)NC2CC2)c(O)n2nc(-c3cnccc3F)cc12` [Synthesis Example 295, N-Cyclopropyl-2-(4-fluoropyridin-3-yl)-7-hydroxy-4-neopentyl-5-oxo-4,5-dihydropyrazolo[1,5-a]pyrimidine-6-carboxamide] is 1.9-fold lower in IC50: 4.73 nM for the first, 2.48 nM for the second.

`CC(C)(C)Cn1c(=O)c(C(=O)NC2CC2)c(O)n2nc(-c3cccnc3C(F)(F)F)cc12` [Synthesis Example 284, N-Cyclopropyl-7-hydroxy-4-neopentyl-5-oxo-2-(2-(trifluoromethyl)pyridin-3-yl)-4,5-dihydropyrazolo[1,5-a]pyrimidine-6-carboxamide] and `CC(C)(C)Cn1c(=O)c(C(=O)NC2CC2)c(O)n2nc(-c3cccnc3C(F)F)cc12` [Synthesis Example 297, N-Cyclopropyl-2-(2-(difluoromethyl)pyridin-3-yl)-7-hydroxy-4-neopentyl-5-oxo-4,5-dihydropyrazolo[1,5-a]pyrimidine-6-carboxamide] are within 1.5-fold of each other in IC50: 3.93 nM for the first, 3.32 nM for the second.

First: CC(C)(C)Cn1c(=O)c(C(=O)NC2CC2)c(O)n2nc(-c3cc(F)cnc3N)cc12 [Synthesis Example 285, 2-(2-Amino-5-fluoropyridin-3-yl)-N-cyclopropyl-7-hydroxy-4-neopentyl-5-oxo-4,5-dihydropyrazolo[1,5-a]pyrimidine-6-carboxamide]
Second: CC(C)(C)Cn1c(=O)c(C(=O)NC2CC2)c(O)n2nc(-c3cc(C#N)cnc3N)cc12 [Synthesis Example 291, 2-(2-Amino-5-cyanopyridin-3-yl)-N-cyclopropyl-7-hydroxy-4-neopentyl-5-oxo-4,5-dihydropyrazolo[1,5-a]pyrimidine-6-carboxamide]
The IC50 of the first is 2-fold lower: 3.28 nM for the first, 6.42 nM for the second.

`CC(C)(C)Cn1c(=O)c(C(=O)NC2CC2)c(O)n2nc(-c3cn[nH]c3)cc12` [Synthesis Example 286, N-Cyclopropyl-7-hydroxy-4-neopentyl-5-oxo-2-(1H-pyrazol-4-yl)-4,5-dihydropyrazolo[1,5-a]pyrimidine-6-carboxamide] and `CC(C)(C)Cn1c(=O)c(C(=O)NC2CC2)c(O)n2nc(-c3cncnc3)cc12` [Synthesis Example 288, N-Cyclopropyl-7-hydroxy-4-neopentyl-5-oxo-2-(pyrimidin-5-yl)-4,5-dihydropyrazolo[1,5-a]pyrimidine-6-carboxamide] are within 1.5-fold of each other in IC50: 1.54 nM for the first, 1.37 nM for the second.

`Cc1cn[nH]c1-c1cc2n(CC(C)(C)C)c(=O)c(C(=O)NC3CC3)c(O)n2n1` [Synthesis Example 287, N-Cyclopropyl-7-hydroxy-2-(4-methyl-1H-pyrazol-5-yl)-4-neopentyl-5-oxo-4,5-dihydropyrazolo[1,5-a]pyrimidine-6-carboxamide] and `CC(C)(C)Cn1c(=O)c(C(=O)NC2CC2)c(O)n2nc(-c3cc(C#N)n[nH]3)cc12` [Synthesis Example 296, 2-(3-Cyano-1H-pyrazol-5-yl)-N-cyclopropyl-7-hydroxy-4-neopentyl-5-oxo-4,5-dihydropyrazolo[1,5-a]pyrimidine-6-carboxamide] are within 1.5-fold of each other in IC50: 2.53 nM for the first, 2.93 nM for the second.

`CC(C)(C)Cn1c(=O)c(C(=O)NC2CC2)c(O)n2nc(-c3cnc(N)nc3)cc12` [Synthesis Example 289, 2-(2-Aminopyrimidin-5-yl)-N-cyclopropyl-7-hydroxy-4-neopentyl-5-oxo-4,5-dihydropyrazolo[1,5-a]pyrimidine-6-carboxamide] and `CC(C)(C)Cn1c(=O)c(C(=O)NC2CC2)c(O)n2nc(-c3cccnc3C#N)cc12` [Synthesis Example 293, 2-(2-Cyanopyridin-3-yl)-N-cyclopropyl-7-hydroxy-4-neopentyl-5-oxo-4,5-dihydropyrazolo[1,5-a]pyrimidine-6-carboxamide] are within 1.5-fold of each other in IC50: 2.05 nM for the first, 2.24 nM for the second.

Going from `Nc1ncccc1-c1cc2n(CC3CCOCC3)c(=O)c(C(=O)NC3CC3)c(O)n2n1` [Synthesis Example 290, 2-(2-Aminopyridin-3-yl)-N-cyclopropyl-7-hydroxy-5-oxo-4-((tetrahydro-2H-pyran-4-yl)methyl)-4,5-dihydropyrazolo[1,5-a]pyrimidine-6-carboxamide] to `CC(C)(C)Cn1c(=O)c(C(=O)NC2CC2)c(O)n2nc(-c3cnccc3C#N)cc12` [Synthesis Example 294, 2-(4-Cyanopyridin-3-yl)-N-cyclopropyl-7-hydroxy-4-neopentyl-5-oxo-4,5-dihydropyrazolo[1,5-a]pyrimidine-6-carboxamide], the IC50 rises from 0.93 nM to 2.26 nM (2.4-fold). The first is the more potent here.

Going from `CC(C)(C)Cn1c(=O)c(C(=O)NC2CC2)c(O)n2nc(-c3n[nH]cc3C#N)cc12` [Synthesis Example 292, 2-(4-Cyano-1H-pyrazol-3-yl)-N-cyclopropyl-7-hydroxy-4-neopentyl-5-oxo-4,5-dihydropyrazolo[1,5-a]pyrimidine-6-carboxamide] to `CC(C)(C)Cn1c(=O)c(C(=O)NC2CC2)c(O)n2nc(-c3n[nH]cc3C(F)(F)F)cc12` [Synthesis Example 298, N-Cyclopropyl-7-hydroxy-4-neopentyl-5-oxo-2-(4-(trifluoromethyl)-1H-pyrazol-3-yl)-4,5-dihydropyrazolo[1,5-a]pyrimidine-6-carboxamide], the IC50 rises from 1.32 nM to 3.11 nM (2.4-fold).
